System: anesthetized dogs
Experiment: Myocardial oxygen consumption, coronary flow, cardiac output in anesthetized dogs, iv
Format: in vivo
Settings: c3-c8 5,15,30,60,90,120 min after administration; for cardiac output, x ± s / myocardial oxygen uptake, x ± s / coronary artery resistance, x ± s / myocardial oxygen consumption, x ± s / total peripheral resistance (TPR), x ± s: c2 0 min before
Method: Isosorbide Dinitrate control group were medicated by continuous intravenous infusion and other groups by intravenous injection.
The animals were anesthetised with 3% pentobarbital sodium iv at the dose of 30 mg/kg. Tracheal intubation was performed and SC-M5 anesthesia respirator (manufactured by Shanghai Medical Instrument Factory, frequency: 16˜18 per min, tidal volume: 350˜550 ml) was connected. Bilateral femoral arteries were separated for blood sampling and analyzing and measurement of mean blood pressure. Thoracotomy at the fourth intercostal space was performed to expose the heart and to open the pericardium to make pericardial hammock. Ascending aortic root and upper part of left branch of anterior descending coronary artery were dissociated to put respectively probes of electromagnetic flowmeter (MFV-1100/1200, made by Japanese Nihon Kohden Company) to measure cardiac output and coronary artery flow rate. Right jugular vein was separated for insertion of a cardiac catheter that was guided into coronary venous sinuses before fixation. Synchronously, blood was sampled by drawing from coronary sinus and femoral artery (0.5% heparin was added for anticoagulation). pO2 and pH were detected with a blood gas analyzer (DH-1830 Blood Gas Acid-base Analyze, Nanjing Ananalysis Apparatus Factor) and the values were converted to artery and venous oxygen content. After intravenous infusion of control solvent or the drug, constant infusion for all groups was completed with an electronic constant flow pump (SH-88AB Controllable Intravenous Injector made by Quanzhou Lizhong Electronic Medical Instrument Factory). Both artery and venous blood gas before administration or 5, 15, 30, 60, 90 and 120 min after administration was analyzed and mean blood pressure and cardiac output at 0, 5, 15, 30, 60, 90 and 120 min were observed.
Myocardial oxygen consumption(ml/min/100 g)=coronary flow ml/min/100 g×artery oxygen−coronary sinus oxygen ml %).
Myocardial oxygen uptake (%)=(artery oxygen ml %−coronary sinus oxygen ml %)/artery oxygen ml %
Total peripheral resistance of general circulation(dyn·s·cm−5)=mean arterial blood pressure[MAP(KPa)]×80/cardiac output[CO(L/min)]=mean arterial blood pressure[MAP(mmHg)]×10.6/cardiac output[CO(L/min)]
Coronary resistance[Kpa/ml/min]=mean arterial blood pressure[MAP(KPa)]/coronary artery flow.

[1] = TSG 5 mg/kg iv, before administration, 0 min
[2] = TSG 5 mg/kg iv, 5 min after administration
[3] = TSG 5 mg/kg iv, 15 min after administration
[4] = TSG 5 mg/kg iv, 30 min after administration
[5] = TSG 5 mg/kg iv, 60 min after administration
[6] = TSG 5 mg/kg iv, 90 min after administration
[7] = TSG 5 mg/kg iv, 120 min after administration
[8] = TSG 10 mg/kg iv, 0 min, before administration
[9] = TSG 10 mg/kg iv, 5 min after administration
[10] = TSG 10 mg/kg iv, 15 min after administration
[11] = TSG 10 mg/kg iv, 30 min after administration
[12] = TSG 10 mg/kg iv, 60 min after administration
[13] = TSG 10 mg/kg iv, 90 min after administration
[14] = TSG 10 mg/kg iv, 120 min after administration
[15] = TSG 10 mg/kg iv, before administration, 0 min

3,4′,5-trihydroxy-stilbene-3-β-D-glucoside [TSG]
cardiac output, x ± s [1]: 1.09 ± 0.14 L/min | myocardial oxygen uptake, x ± s [1]: 79.5 ± 6.93% | cardiac output, variation % [2]: 3.58 ± 2.00% | coronary artery resistance, variation % [2]: 3.03% | myocardial oxygen consumption, variation % [2]: −0.52 ± 1.59% | myocardial oxygen uptake, variation % [2]: 0.15% | total peripheral resistance (TPR), variation % [2]: −0.82 ± 2.72% | cardiac output, variation % [3]: 3.47 ± 0.97% | coronary artery resistance, variation % [3]: 2.18 ± 2.46% | total peripheral resistance (TPR), variation % [3]: 1.31 ± 2.04% | cardiac output, variation % [4]: 5.25 ± 2.62% | coronary artery resistance, variation % [4]: 0.02 ± 3.86% | myocardial oxygen consumption, variation % [4]: −0.59 ± 2.68% | myocardial oxygen uptake, variation % [4]: −5.76 ± 5.34 % | total peripheral resistance (TPR), variation % [4]: 0.90 ± 1.20% | cardiac output, variation % [5]: 6.05 ± 2.06 % | coronary artery resistance, variation % [5]: −3.62 ± 3.63% | myocardial oxygen consumption, variation % [5]: 0.68 ± 1.74% | myocardial oxygen uptake, variation % [5]: −6.24 ± 4.39 % | total peripheral resistance (TPR), variation % [5]: 0.20 ± 1.19% | cardiac output, variation % [6]: 5.98 ± 2.02 % | coronary artery resistance, variation % [6]: −4.03 ± 2.13% | myocardial oxygen consumption, variation % [6]: −0.91 ± 2.81% | myocardial oxygen uptake, variation % [6]: −5.51 ± 4.5 % | total peripheral resistance (TPR), variation % [6]: −1.59 ± 3.63% | cardiac output, variation % [7]: 4.86 ± 2.88% | coronary artery resistance, variation % [7]: −3.99 ± 3.34 % | total peripheral resistance (TPR), variation % [7]: −2.75 ± 3.55% | coronary artery resistance, x ± s [8]: 0.273 ± 0.032 Kpa/ml/min | myocardial oxygen consumption, x ± s [8]: 214.1 ± 6.66 mL/min.100 g^−1 | total peripheral resistance (TPR), x ± s [8]: 891.8 ± 93.4 dyn·s·cm^−5 | cardiac output, x ± s [9]: 1.13 ± 0.13 L/min | coronary artery resistance, x ± s [9]: 0.286 Kpa/ml/min | myocardial oxygen consumption, x ± s [9]: 211.0 ± 5.44 mL/min.100 g^−1 | myocardial oxygen uptake, x ± s [9]: 78.7% | total peripheral resistance (TPR), x ± s [9]: 890.5 ± 82.2 dyn·s·cm^−5 | cardiac output, x ± s [10]: 1.14 ± 0.14 L/min | coronary artery resistance, x ± s [10]: 0.278 ± 0.028 Kpa/ml/min | total peripheral resistance (TPR), x ± s [10]: 891.3 ± 78.1 dyn·s·cm^−5 | cardiac output, x ± s [11]: 1.16 ± 0.13 L/min | coronary artery resistance, x ± s [11]: 0.274 ± 0.035 Kpa/ml/min | myocardial oxygen consumption, x ± s [11]: 208.0 ± 5.3 mL/min.100 g^−1 | myocardial oxygen uptake, x ± s [11]: 71.3 ± 5.28% | total peripheral resistance (TPR), x ± s [11]: 903.4 ± 76.9 dyn·s·cm^−5 | cardiac output, x ± s [12]: 1.18 ± 0.14 L/min | coronary artery resistance, x ± s [12]: 0.267 ± 0.037 Kpa/ml/min | myocardial oxygen consumption, x ± s [12]: 210.3 ± 6.32 mL/min.100 g^−1 | myocardial oxygen uptake, x ± s [12]: 71.7 ± 5.71 % | total peripheral resistance (TPR), x ± s [12]: 878.7 ± 90.9 dyn·s·cm^−5 | cardiac output, x ± s [13]: 1.18 ± 0.15 L/min | coronary artery resistance, x ± s [13]: 0.270 ± 0.040 Kpa/ml/min | myocardial oxygen consumption, x ± s [13]: 209.1 ± 6.38 mL/min.100 g^−1 | myocardial oxygen uptake, x ± s [13]: 72.4 ± 5.51 % | total peripheral resistance (TPR), x ± s [13]: 872.9 ± 98.6 dyn·s·cm^−5 | cardiac output, x ± s [14]: 1.15 ± 0.16 L/min | coronary artery resistance, x ± s [14]: 0.263 ± 0.038 Kpa/ml/min | total peripheral resistance (TPR), x ± s [14]: 863.7 ± 80.0 dyn·s·cm^−5 | cardiac output, x ± s [15]: 1.08 ± 0.15 L/min | myocardial oxygen uptake, x ± s [15]: 80.0 ± 6.55% | cardiac output, variation % [9]: 4.60 ± 3.19% | coronary artery resistance, variation % [9]: 4.63% | myocardial oxygen consumption, variation % [9]: −1.45 ± 1.13% | myocardial oxygen uptake, variation % [9]: −1.46% | total peripheral resistance (TPR), variation % [9]: 0.02 ± 4.07% | cardiac output, variation % [10]: 5.74 ± 2.02 % | coronary artery resistance, variation % [10]: 1.79 ± 3.25% | total peripheral resistance (TPR), variation % [10]: 0.09 ± 2.25% | cardiac output, variation % [11]: 7.43 ± 3.40 % | coronary artery resistance, variation % [11]: 0.21 ± 1.44% | myocardial oxygen consumption, variation % [11]: −2.77 ± 3.75% | myocardial oxygen uptake, variation % [11]: −10.7 ± 4.01 % | total peripheral resistance (TPR), variation % [11]: 1.49 ± 3.81% | cardiac output, variation % [12]: 9.41 ± 4.82 % | coronary artery resistance, variation % [12]: −2.64 ± 2.78% | myocardial oxygen consumption, variation % [12]: −1.75 ± 3.51% | myocardial oxygen uptake, variation % [12]: −10.3 ± 5.25 % | total peripheral resistance (TPR), variation % [12]: −1.42 ± 3.68% | cardiac output, variation % [13]: 9.05 ± 2.24 % | coronary artery resistance, variation % [13]: −1.69 ± 4.78% | myocardial oxygen consumption, variation % [13]: −2.28 ± 3.5% | myocardial oxygen uptake, variation % [13]: −9.32 ± 3.22 % | total peripheral resistance (TPR), variation % [13]: −2.16 ± 2.50% | cardiac output, variation % [14]: 6.53 ± 2.43 % | coronary artery resistance, variation % [14]: −4.10 ± 5.44 % | total peripheral resistance (TPR), variation % [14]: −3.00 ± 4.04%

From patent publication US20080176810A1, “Use of 3, 4', 5-Trihydroxy-Stilbene-3-Beta-D-glucoside in Prepartion of Medicines For Treating and/or Preventing Ischemic Heart Disease” (SHENZHEN NEPTUNUS PHARMACEUTICAL CO., LTD., priority 2004, published 2008)
